Test results taken from the kinase profiling compilation of Christmann-Franck et al. (2016).

How the values were obtained:
Assay in all cases: radiometric filter-binding kinase assay, Kinase HotSpot
Conditions in all cases: compound 0.5 µM; ATP 10 µM
TSSK2 (human) = TSSK2 (human) (UniProt Q96PF2)
MAPK8 (human) = MAPK8 (human) (UniProt P45983)
MATK (human) = MATK (human) (UniProt P42679)
MELK (human) = MELK (human) (UniProt Q14680)
CDK9 CCNK (human) = CDK9 CCNK (human) (UniProt O75909+P50750)
PRKD3 (human) = PRKD3 (human) (UniProt O94806)
BLK (human) = BLK (human) (UniProt P51451)
NEK7 (human) = NEK7 (human) (UniProt Q8TDX7)
KIT (human) = KIT (human) (UniProt P10721)
FRK (human) = FRK (human) (UniProt P42685)
NEK3 (human) = NEK3 (human) (UniProt P51956)
TEC (human) = TEC (human) (UniProt P42680)
CDK5 CDK5R1 p25 (human) = CDK5 CDK5R1 p25 (human) (UniProt Q00535+Q15078)
CSNK1E (human) = CSNK1E (human) (UniProt P49674)
TYRO3 (human) = TYRO3 (human) (UniProt Q06418)
TXK (human) = TXK (human) (UniProt P42681)
PNCK (human) = PNCK (human) (UniProt Q6P2M8)
CHEK1 (human) = CHEK1 (human) (UniProt O14757)
MARK4 (human) = MARK4 (human) (UniProt Q96L34)
CDK4 CCND3 (human) = CDK4 CCND3 (human) (UniProt P30281+P11802)
CDK2 CCNE1 (human) = CDK2 CCNE1 (human) (UniProt P24941+P24864)
CHUK (human) = CHUK (human) (UniProt O15111)
TAOK1 (human) = TAOK1 (human) (UniProt Q7L7X3)
HIPK3 (human) = HIPK3 (human) (UniProt Q9H422)
RPS6KA2 KD1 KD2 (human) = RPS6KA2 KD1 KD2 (human) (UniProt Q15349)
FGFR4 (human) = FGFR4 (human) (UniProt P22455)
PRKCZ (human) = PRKCZ (human) (UniProt Q05513)
ULK1 (human) = ULK1 (human) (UniProt O75385)
CAMK2D (human) = CAMK2D (human) (UniProt Q13557)
CDK2 CCNA2 (human) = CDK2 CCNA2 (human) (UniProt P24941+P20248)
MAP3K8 (human) = MAP3K8 (human) (UniProt P41279)
FER (human) = FER (human) (UniProt P16591)
MAPK1 (human) = MAPK1 (human) (UniProt P28482)
RIPK2 (human) = RIPK2 (human) (UniProt O43353)
EPHA3 (human) = EPHA3 (human) (UniProt P29320)
RPS6KA3 KD1 KD2 (human) = RPS6KA3 KD1 KD2 (human) (UniProt P51812)
PBK (human) = PBK (human) (UniProt Q96KB5)
PIM2 (human) = PIM2 (human) (UniProt Q9P1W9)
TTK (human) = TTK (human) (UniProt P33981)
MAP4K2 (human) = MAP4K2 (human) (UniProt Q12851)
CHEK2 (human) = CHEK2 (human) (UniProt O96017)

CDK5 CDK5R1 p25 (human), sequence (Q00535 whole entry, looked up): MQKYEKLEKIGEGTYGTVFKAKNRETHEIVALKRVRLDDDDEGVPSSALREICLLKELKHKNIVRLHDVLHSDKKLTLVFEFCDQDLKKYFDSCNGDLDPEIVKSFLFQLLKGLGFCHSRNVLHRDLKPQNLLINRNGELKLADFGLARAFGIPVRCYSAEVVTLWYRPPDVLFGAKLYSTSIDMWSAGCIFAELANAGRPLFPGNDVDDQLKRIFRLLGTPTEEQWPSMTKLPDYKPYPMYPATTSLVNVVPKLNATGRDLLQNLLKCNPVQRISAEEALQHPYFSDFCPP
CDK5 CDK5R1 p25 (human), sequence (Q15078 whole entry, looked up): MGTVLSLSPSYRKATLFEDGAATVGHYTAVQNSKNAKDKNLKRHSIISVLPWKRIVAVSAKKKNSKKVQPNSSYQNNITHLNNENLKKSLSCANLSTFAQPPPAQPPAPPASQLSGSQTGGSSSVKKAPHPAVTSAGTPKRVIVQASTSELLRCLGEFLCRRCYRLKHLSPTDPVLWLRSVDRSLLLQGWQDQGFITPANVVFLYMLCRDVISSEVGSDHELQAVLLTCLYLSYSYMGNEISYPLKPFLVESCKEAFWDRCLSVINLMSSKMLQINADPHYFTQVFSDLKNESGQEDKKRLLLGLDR
MAPK1 (human), sequence (P28482 whole entry, looked up): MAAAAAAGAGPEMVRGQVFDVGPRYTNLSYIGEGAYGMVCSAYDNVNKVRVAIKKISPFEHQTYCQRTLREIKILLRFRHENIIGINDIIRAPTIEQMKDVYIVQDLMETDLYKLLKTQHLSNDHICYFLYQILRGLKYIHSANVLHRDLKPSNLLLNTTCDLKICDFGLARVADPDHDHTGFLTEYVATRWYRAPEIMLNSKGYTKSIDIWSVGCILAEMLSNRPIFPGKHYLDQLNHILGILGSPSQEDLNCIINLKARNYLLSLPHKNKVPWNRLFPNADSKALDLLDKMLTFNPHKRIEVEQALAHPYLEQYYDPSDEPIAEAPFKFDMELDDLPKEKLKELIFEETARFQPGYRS
PBK (human), sequence (Q96KB5 whole entry, looked up): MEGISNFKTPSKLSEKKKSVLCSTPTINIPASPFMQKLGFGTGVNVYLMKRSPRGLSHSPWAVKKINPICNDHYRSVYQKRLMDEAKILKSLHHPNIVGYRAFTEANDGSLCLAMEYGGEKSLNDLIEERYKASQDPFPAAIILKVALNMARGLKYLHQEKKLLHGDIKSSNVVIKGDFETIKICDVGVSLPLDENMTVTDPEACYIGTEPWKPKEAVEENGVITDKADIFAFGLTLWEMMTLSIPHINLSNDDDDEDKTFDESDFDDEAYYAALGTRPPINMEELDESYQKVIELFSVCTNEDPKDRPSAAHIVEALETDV
PIM2 (human), sequence (Q9P1W9 whole entry, looked up): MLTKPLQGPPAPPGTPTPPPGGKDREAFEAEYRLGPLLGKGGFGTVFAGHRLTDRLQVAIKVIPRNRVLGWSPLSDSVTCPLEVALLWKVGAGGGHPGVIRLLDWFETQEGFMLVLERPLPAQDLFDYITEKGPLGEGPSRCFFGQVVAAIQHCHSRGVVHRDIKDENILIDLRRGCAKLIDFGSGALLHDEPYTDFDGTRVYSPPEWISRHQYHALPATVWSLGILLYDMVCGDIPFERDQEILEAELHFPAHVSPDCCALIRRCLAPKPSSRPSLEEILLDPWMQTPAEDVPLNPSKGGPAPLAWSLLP
CDK2 CCNA2 (human), sequence (P20248 whole entry, looked up, other chains not shown): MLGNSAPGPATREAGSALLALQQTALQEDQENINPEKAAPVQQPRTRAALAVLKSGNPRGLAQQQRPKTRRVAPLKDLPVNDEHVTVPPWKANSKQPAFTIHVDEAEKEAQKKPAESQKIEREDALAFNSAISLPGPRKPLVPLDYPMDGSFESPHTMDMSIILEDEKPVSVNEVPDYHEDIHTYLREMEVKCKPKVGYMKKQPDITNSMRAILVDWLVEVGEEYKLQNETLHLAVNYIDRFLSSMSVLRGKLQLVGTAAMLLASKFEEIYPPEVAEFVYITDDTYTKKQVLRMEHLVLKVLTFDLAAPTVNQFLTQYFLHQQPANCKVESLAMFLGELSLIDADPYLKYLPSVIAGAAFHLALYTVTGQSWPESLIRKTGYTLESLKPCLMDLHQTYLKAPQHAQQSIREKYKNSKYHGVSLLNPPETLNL
MAPK8 (human), sequence (P45983 whole entry, looked up): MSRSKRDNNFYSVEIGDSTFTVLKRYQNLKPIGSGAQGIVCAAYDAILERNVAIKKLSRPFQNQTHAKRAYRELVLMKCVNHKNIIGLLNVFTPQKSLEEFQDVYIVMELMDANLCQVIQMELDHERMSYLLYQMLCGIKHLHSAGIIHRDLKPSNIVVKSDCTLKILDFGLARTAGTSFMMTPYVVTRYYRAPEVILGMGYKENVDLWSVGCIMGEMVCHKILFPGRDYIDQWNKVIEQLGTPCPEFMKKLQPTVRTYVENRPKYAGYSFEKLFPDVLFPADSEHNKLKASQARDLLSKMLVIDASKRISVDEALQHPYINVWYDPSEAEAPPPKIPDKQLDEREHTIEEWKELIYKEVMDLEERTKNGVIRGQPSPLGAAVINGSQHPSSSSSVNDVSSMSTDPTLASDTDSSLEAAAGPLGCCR
TAOK1 (human), sequence (Q7L7X3 whole entry, looked up): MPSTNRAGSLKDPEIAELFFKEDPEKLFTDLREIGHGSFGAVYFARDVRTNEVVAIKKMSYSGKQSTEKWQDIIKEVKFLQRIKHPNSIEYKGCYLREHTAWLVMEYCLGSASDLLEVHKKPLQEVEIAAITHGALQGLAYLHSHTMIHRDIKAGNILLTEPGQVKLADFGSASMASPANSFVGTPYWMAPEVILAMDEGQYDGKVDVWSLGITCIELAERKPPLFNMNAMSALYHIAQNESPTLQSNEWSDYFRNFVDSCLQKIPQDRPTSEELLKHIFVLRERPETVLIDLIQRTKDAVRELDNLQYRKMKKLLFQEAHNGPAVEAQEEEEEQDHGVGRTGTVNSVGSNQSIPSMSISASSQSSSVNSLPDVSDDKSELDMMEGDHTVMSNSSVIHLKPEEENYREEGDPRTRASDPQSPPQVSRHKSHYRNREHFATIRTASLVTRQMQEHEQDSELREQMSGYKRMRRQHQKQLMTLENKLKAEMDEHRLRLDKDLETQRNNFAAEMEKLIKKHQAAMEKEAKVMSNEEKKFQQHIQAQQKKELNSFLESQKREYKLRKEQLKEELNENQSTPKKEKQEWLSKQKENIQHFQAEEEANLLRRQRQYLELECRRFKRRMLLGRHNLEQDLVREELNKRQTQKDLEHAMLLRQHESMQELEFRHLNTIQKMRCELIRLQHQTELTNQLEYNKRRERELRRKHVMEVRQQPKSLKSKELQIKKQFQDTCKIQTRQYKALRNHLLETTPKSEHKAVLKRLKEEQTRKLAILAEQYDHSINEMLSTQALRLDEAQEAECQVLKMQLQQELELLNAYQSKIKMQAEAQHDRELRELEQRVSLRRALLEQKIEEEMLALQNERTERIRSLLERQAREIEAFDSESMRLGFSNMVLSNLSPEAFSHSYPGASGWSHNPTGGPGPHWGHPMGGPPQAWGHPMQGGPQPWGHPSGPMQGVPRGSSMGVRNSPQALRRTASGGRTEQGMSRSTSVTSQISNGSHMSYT
TXK (human), sequence (P42681 whole entry, looked up): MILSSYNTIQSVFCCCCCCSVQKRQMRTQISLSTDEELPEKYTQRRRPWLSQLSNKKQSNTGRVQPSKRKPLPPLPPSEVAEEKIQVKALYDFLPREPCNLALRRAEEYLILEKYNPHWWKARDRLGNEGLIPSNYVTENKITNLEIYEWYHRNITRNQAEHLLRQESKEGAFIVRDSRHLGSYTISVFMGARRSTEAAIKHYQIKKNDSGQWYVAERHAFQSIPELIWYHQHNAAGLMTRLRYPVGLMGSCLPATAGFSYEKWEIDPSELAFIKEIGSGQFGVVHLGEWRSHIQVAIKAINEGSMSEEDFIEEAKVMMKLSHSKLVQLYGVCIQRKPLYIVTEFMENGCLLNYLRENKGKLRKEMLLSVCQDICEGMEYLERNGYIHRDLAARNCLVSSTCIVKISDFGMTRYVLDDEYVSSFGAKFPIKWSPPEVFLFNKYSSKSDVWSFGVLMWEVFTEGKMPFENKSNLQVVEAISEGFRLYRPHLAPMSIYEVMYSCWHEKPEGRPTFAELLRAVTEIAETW
EPHA3 (human), sequence (P29320 whole entry, looked up): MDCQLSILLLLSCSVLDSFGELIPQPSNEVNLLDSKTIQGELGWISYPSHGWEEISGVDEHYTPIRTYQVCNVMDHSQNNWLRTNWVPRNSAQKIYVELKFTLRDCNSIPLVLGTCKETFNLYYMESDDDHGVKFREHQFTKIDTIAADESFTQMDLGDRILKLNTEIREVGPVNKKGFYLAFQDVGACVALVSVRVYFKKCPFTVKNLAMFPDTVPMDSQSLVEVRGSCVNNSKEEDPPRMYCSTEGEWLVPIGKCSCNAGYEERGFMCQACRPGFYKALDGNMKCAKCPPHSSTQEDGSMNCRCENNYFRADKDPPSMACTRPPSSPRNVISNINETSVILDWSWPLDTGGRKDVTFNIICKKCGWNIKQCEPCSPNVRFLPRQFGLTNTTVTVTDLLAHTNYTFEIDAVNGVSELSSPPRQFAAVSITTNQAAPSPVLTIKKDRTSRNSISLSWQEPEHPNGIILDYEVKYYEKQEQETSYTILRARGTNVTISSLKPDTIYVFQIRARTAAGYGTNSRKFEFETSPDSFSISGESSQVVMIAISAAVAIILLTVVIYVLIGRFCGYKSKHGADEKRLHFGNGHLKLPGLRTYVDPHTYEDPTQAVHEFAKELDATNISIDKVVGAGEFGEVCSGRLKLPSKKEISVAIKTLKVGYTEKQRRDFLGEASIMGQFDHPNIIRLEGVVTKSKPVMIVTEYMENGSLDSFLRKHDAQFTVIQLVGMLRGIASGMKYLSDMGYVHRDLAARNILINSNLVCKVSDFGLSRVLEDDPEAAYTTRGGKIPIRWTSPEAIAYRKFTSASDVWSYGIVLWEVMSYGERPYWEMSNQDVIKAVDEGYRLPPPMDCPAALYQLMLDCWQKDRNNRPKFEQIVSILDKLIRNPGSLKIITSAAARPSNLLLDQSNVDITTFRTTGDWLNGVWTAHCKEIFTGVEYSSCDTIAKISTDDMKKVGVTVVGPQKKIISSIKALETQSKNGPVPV

N#C/C(=C(/N)Sc1ccc(N)cc1)c1ccccc1C(F)(F)F
residual activity (TSSK2 (human)): 94.2%
residual activity (MAPK8 (human)): 112%
residual activity (MATK (human)): 90.7%
residual activity (MELK (human)): 96.1%
residual activity (CDK9 CCNK (human)): 98%
residual activity (PRKD3 (human)): 96.8%
residual activity (BLK (human)): 111%
residual activity (NEK7 (human)): 93.9%
residual activity (KIT (human)): 91.8%
residual activity (FRK (human)): 102%
residual activity (NEK3 (human)): 99.6%
residual activity (TEC (human)): 109%
residual activity (CDK5 CDK5R1 p25 (human)): 93.1%
residual activity (CSNK1E (human)): 95.9%
residual activity (TYRO3 (human)): 110%
residual activity (TXK (human)): 98.7%
residual activity (PNCK (human)): 98.9%
residual activity (CHEK1 (human)): 97.5%
residual activity (MARK4 (human)): 101%
residual activity (CDK4 CCND3 (human)): 108%
residual activity (CDK2 CCNE1 (human)): 95.4%
residual activity (CHUK (human)): 102%
residual activity (TAOK1 (human)): 98.3%
residual activity (HIPK3 (human)): 114%
residual activity (RPS6KA2 KD1 KD2 (human)): 99.2%
residual activity (FGFR4 (human)): 108%
residual activity (PRKCZ (human)): 106%
residual activity (ULK1 (human)): 99.6%
residual activity (CAMK2D (human)): 93.4%
residual activity (CDK2 CCNA2 (human)): 95.9%
residual activity (MAP3K8 (human)): 96.5%
residual activity (FER (human)): 105%
residual activity (MAPK1 (human)): 86%
residual activity (RIPK2 (human)): 91%
residual activity (EPHA3 (human)): 105%
residual activity (RPS6KA3 KD1 KD2 (human)): 100%
residual activity (PBK (human)): 95.3%
residual activity (PIM2 (human)): 103%
residual activity (TTK (human)): 93.6%
residual activity (MAP4K2 (human)): 85.7%
residual activity (CHEK2 (human)): 97.7%

CC(=O)c1ccc(N2CCOCC2)cc1O
residual activity (TSSK2 (human)): 102%
residual activity (MAPK8 (human)): 96.8%
residual activity (MATK (human)): 92.1%
residual activity (MELK (human)): 102%
residual activity (CDK9 CCNK (human)): 106%
residual activity (PRKD3 (human)): 98.4%
residual activity (BLK (human)): 102%
residual activity (NEK7 (human)): 101%
residual activity (KIT (human)): 102%
residual activity (FRK (human)): 91.6%
residual activity (NEK3 (human)): 103%
residual activity (TEC (human)): 139%
residual activity (CDK5 CDK5R1 p25 (human)): 99.7%
residual activity (CSNK1E (human)): 96.2%
residual activity (TYRO3 (human)): 89.1%
residual activity (TXK (human)): 103%
residual activity (PNCK (human)): 103%
residual activity (CHEK1 (human)): 103%
residual activity (MARK4 (human)): 99.4%
residual activity (CDK4 CCND3 (human)): 96.4%
residual activity (CDK2 CCNE1 (human)): 94.8%
residual activity (CHUK (human)): 96.2%
residual activity (TAOK1 (human)): 99.4%
residual activity (HIPK3 (human)): 101%
residual activity (RPS6KA2 KD1 KD2 (human)): 98.6%
residual activity (FGFR4 (human)): 108%
residual activity (PRKCZ (human)): 111%
residual activity (ULK1 (human)): 94.8%
residual activity (CAMK2D (human)): 100%
residual activity (CDK2 CCNA2 (human)): 99.3%
residual activity (MAP3K8 (human)): 99.4%
residual activity (FER (human)): 90.4%
residual activity (MAPK1 (human)): 97.6%
residual activity (RIPK2 (human)): 103%
residual activity (EPHA3 (human)): 108%
residual activity (RPS6KA3 KD1 KD2 (human)): 101%
residual activity (PBK (human)): 113%
residual activity (PIM2 (human)): 117%
residual activity (TTK (human)): 103%
residual activity (MAP4K2 (human)): 116%
residual activity (CHEK2 (human)): 104%

CO[C@H]1CC2CC[C@@H](C)[C@@](O)(O2)C(=O)C(=O)N2CCCC[C@H]2C(=O)OC([C@H](C)C[C@@H]2CC[C@@H](O)[C@H](OC)C2)CC(=O)[C@H](C)/C=C(\C)[C@@H](O)[C@@H](OC)C(=O)[C@H](C)C[C@H](C)/C=C/C=C/C=C/1C (some centres undefined)
residual activity (TSSK2 (human)): 99.8%
residual activity (MAPK8 (human)): 100%
residual activity (MATK (human)): 92%
residual activity (MELK (human)): 97.8%
residual activity (CDK9 CCNK (human)): 106%
residual activity (PRKD3 (human)): 95.6%
residual activity (BLK (human)): 94.8%
residual activity (NEK7 (human)): 104%
residual activity (KIT (human)): 95.7%
residual activity (FRK (human)): 106%
residual activity (NEK3 (human)): 99%
residual activity (TEC (human)): 138%
residual activity (CDK5 CDK5R1 p25 (human)): 96.3%
residual activity (CSNK1E (human)): 102%
residual activity (TYRO3 (human)): 98.5%
residual activity (TXK (human)): 105%
residual activity (PNCK (human)): 95.4%
residual activity (CHEK1 (human)): 107%
residual activity (MARK4 (human)): 99.1%
residual activity (CDK4 CCND3 (human)): 104%
residual activity (CDK2 CCNE1 (human)): 91.3%
residual activity (CHUK (human)): 110%
residual activity (TAOK1 (human)): 102%
residual activity (HIPK3 (human)): 107%
residual activity (RPS6KA2 KD1 KD2 (human)): 89.5%
residual activity (FGFR4 (human)): 76.6%
residual activity (PRKCZ (human)): 105%
residual activity (ULK1 (human)): 87.9%
residual activity (CAMK2D (human)): 96.1%
residual activity (CDK2 CCNA2 (human)): 101%
residual activity (MAP3K8 (human)): 99.8%
residual activity (FER (human)): 92%
residual activity (MAPK1 (human)): 101%
residual activity (RIPK2 (human)): 90.5%
residual activity (EPHA3 (human)): 109%
residual activity (RPS6KA3 KD1 KD2 (human)): 105%
residual activity (PBK (human)): 103%
residual activity (PIM2 (human)): 102%
residual activity (TTK (human)): 117%
residual activity (MAP4K2 (human)): 111%
residual activity (CHEK2 (human)): 99%

O=C1NC(=O)c2c1c1c3ccccc3n3c1c1c2c2ccccc2n1C1CCC3O1
residual activity (TSSK2 (human)): 87.1%
residual activity (MAPK8 (human)): 98.5%
residual activity (MATK (human)): 91.7%
residual activity (MELK (human)): 7.13%
residual activity (CDK9 CCNK (human)): 15.8%
residual activity (PRKD3 (human)): -0.0451%
residual activity (BLK (human)): 37.7%
residual activity (NEK7 (human)): 99.1%
residual activity (KIT (human)): 60.8%
residual activity (FRK (human)): 102%
residual activity (NEK3 (human)): 102%
residual activity (TEC (human)): 142%
residual activity (CDK5 CDK5R1 p25 (human)): 28%
residual activity (CSNK1E (human)): 47.3%
residual activity (TYRO3 (human)): 55.3%
residual activity (TXK (human)): 22.7%
residual activity (PNCK (human)): 50.5%
residual activity (CHEK1 (human)): 3.63%
residual activity (MARK4 (human)): 5.31%
residual activity (CDK4 CCND3 (human)): 22.2%
residual activity (CDK2 CCNE1 (human)): 28.5%
residual activity (CHUK (human)): 106%
residual activity (TAOK1 (human)): 66.9%
residual activity (HIPK3 (human)): 49.9%
residual activity (RPS6KA2 KD1 KD2 (human)): 1.33%
residual activity (FGFR4 (human)): 70.4%
residual activity (PRKCZ (human)): 87.4%
residual activity (ULK1 (human)): 73.1%
residual activity (CAMK2D (human)): 7.03%
residual activity (CDK2 CCNA2 (human)): 15.6%
residual activity (MAP3K8 (human)): 94.6%
residual activity (FER (human)): 5.39%
residual activity (MAPK1 (human)): 88.7%
residual activity (RIPK2 (human)): 79.7%
residual activity (EPHA3 (human)): 96.5%
residual activity (RPS6KA3 KD1 KD2 (human)): 2.35%
residual activity (PBK (human)): 39.9%
residual activity (PIM2 (human)): 1.86%
residual activity (TTK (human)): 76.4%
residual activity (MAP4K2 (human)): 3.75%
residual activity (CHEK2 (human)): 13%
